What was measured:
[1] = target: T1, rat lens aldose reductase (Rattus norvegicus, UniProt P07943); assay: Enzyme assay: inhibition of aldose reductase, monitored spectrophotometrically as decrease in NADPH absorbance at 340 nm; assay type: biochemical; conditions: 1x10^-4 M concentration; purified recombinant rat aldose reductase, in vitro; read-out: inhibition rate of aldose reductase
T1 construct: made in house; host or cells: Escherichia coli
Protocol: The activity of purified recombinant rat aldose reductase (Old SE, Sato S, Kador PF. and Carper DA.: In vitro expression of rat lens aldose reductase in Escherichia coli., Proc. Nat. Acad. Sci. USA, 87:4942-4945, 1990) was assayed by spectrophotometrically monitoring decrease in absorbance of NADPH (reduced nicotinamide adenine dinucleotide phosphate) at 340 nm (Kador PF., Goosey JD., Sharpless NE., Kolish J, and Miller DD.: Stereoscopic inhibition of aldose reductase, European J., Med. Chem. 16: 293-298, 1981).
One enzyme unit was defined as amount of enzyme consuming one micromole of NADPH under the assay conditions.
With reference to 1-N,N-dimethylsulfamoyl-4-(2-pyrimidinyl)piperazine (SRA-1; product of Example 3) and 4-((4-dimethylsulfamoyl)piperazino)-2,6-dimethoxypyrimidine (SRA-2; product of Example 1), their in vitro ability to inhibit rat lens aldose reductase were determined.

Diabetic Rats = assay: Cataract formation in streptozotocin-induced diabetic rats, lens changes evaluated by slit lamp; assay type: in vivo, Sprague Dawley rats; conditions: 0.06% drug in rat chow; for cataract formation: Figure 1, result of Test Example 2; for cataract formation / onset and severity of sugar cataract formation / progress of lens changes to the vacuole stage: diabetic rats; for Lens changes were observed at: days after injection of streptozotocin, untreated diabetic lens changes began at 21 days; for onset and severity of sugar cataract formation: compared with control chow; for progress of lens changes to the vacuole stage: in untreated diabetic rats vacuoles clearly visible by 35 days
Protocol: Diabetes was induced in 40 young (60-80 g) Sprague Dawley rats by tail vein injection of 75 mg/kg streptozotocin in Tris-HCl and divided into 3 groups. After 4 days all rats were tested with glucostrips (tail blood), and those with blood sugar levels less than 250 mg % were reinjected with 70 mg/kg streptozotocin dissolved in Tris-HCl.
Drug administration was carried out by adding 0.06% drug to rat chow. The rat chow with added drug was formed by mixing appropriate amounts of each drug with powdered rat chow and then cold pressing the mixture into different size pellets for identification. The rat chow was commercially prepared by BioServe (Frenchtown, N.J.). Subsequently, each compound was dissolved in 500 ml of Tris buffer and mixed with 5 kg of standard rat chow pellets until all liquid was absorbed into the pellets and the wet pellets were dried for 24 hours at 60°C. Rat chow not containing drug was fed to a control group of rats.
Lens changes were evaluated by portable slit lamp at approximately 3-6 day intervals in the diabetic rats. Lens changes were evaluated on a scale at 0 to 3 as follows: 0 clear lens; 1 vacuoles present; 2 cortical opacities; 3 hypermature cataract. The severity of lens changes within the vacuole and cortical stage was further subjectively defined as follows: 1.2 peripheral equatorial vacuoles; 1.4 obvious formation 50% of the lens; 1.6 obvious vacuole formation 50% of lens; 1.8 total lens covered by vacuoles; 2.2 start of cortical changes with posterior capsule still visible by slit lamp; 2.4 advanced cortical opacities covering most of lens; cortical opacity expanded to whole lens; 2.8 total lens is white in appearance.

Row | inhibition at 100 µM [1] [%] | Compound | cataract formation (Diabetic Rats) | Lens changes were observed at (Diabetic Rats) [days] | onset and severity of sugar cataract formation (Diabetic Rats) | progress of lens changes to the vacuole stage (Diabetic Rats)
1 | 5 | CN(C)S(=O)(=O)N1CCN(c2ncccn2)CC1 [SRA-1, 1-N,N-dimethylsulfamoyl-4-(2-pyrimidinyl)piperazine] | inhibited | 39 | delayed | did not progress to the vacuole stage
2 | 13 | COc1cc(N2CCN(S(=O)(=O)N(C)C)CC2)nc(OC)n1 [SRA-2, 4-((4-dimethylsulfamoyl)piperazino)-2,6-dimethoxypyrimidine] | inhibited | 45 | delayed | did not progress to the vacuole stage
